Results taken from patent US20230087994A1, “TARGETED BIFUNCTIONAL DEGRADERS” (YALE UNIVERSITY, priority 2019, published 2023).

What was measured:
[1] = system: ASGPR on the surface of immortalized human hepatocyte HepG2 cells; test: DNP-GN3-mediated ternary complex formation: association of fluorescently labeled α-DNP antibody with HepG2 cells in suspension; assay type: cell-based; conditions: competition; FIG. 86B-86C; read-out: IC50, decrease of DNP-GN3-mediated cellular fluorescence
From the text: It was investigated whether DNP-GN3 could mediate the formation of a ternary complex between a fluorescently labeled α-DNP antibody and ASGPR on the surface of immortalized human hepatocyte HepG2 cells in suspension. […] The observed bell-shaped response to DNP-GN3 concentration is consistent with the prozone effect commonly observed in systems wherein a ternary complex is formed.

[2] = Tolerability of DNP-GN3 and DNP-OH3 in mice (body weight, AST, ALT); assay type: in vivo; conditions: all tested concentrations; FIGS. 93A-93C
Protocol: FIGS. 93A-93C illustrate that DNP-GN3 and DNP-OH3 are not toxic to mice at all tested concentrations. FIG. 93A: mouse body weight following treatment with DNP-GN3 or DNP-OH3. Statistical differences were analyzed by T test. FIG. 93B: levels of aspartate transaminase (AST) in treated mice. Dashed lines represent the normal range. FIG. 93C: levels of alanine transaminase (ALT) in treated mice. Dashed lines represent the normal range.

[3] = system: α-DNP antibody; test: Depletion of α-DNP antibody from serum in mice (ELISA); assay type: in vivo; conditions: negative control compound; FIG. 95
Protocol: FIG. 94 illustrates that serum levels of α-DNP antibody decrease more rapidly following repeated treatment with DNP-GN3. Serum antibody levels were measured using an ELISA assay. Each experimental group contained three mice. Statistical differences in experiments involving in vivo depletion of α-DNP antibody were assessed by repeated measures two-way ANOVA with Tukey's tests for post-hoc comparison of simple effects between each of the treatment groups and PBS.
Single doses of DNP-GN3 were also found to be efficacious at mediating α-DNP antibody depletion, albeit less effectively than daily dosing (FIG. 96). […] Therefore, it was concluded that DNP-GN3 is able to mediate the depletion of a monoclonal antibody from serum, and functions across a wide range of target protein concentrations and dosing regimens.
DNP-GN3 was also found to be efficacious in depleting polyclonal α-DNP antibody from serum collected from mice immunized with DNP-keyhole limpet haemocyanin (KLH) (FIG. 97). […] Thus, the small molecule DNP-GN3 is not restricted in function to only monoclonal mouse antibodies, but is also effective at removing polyclonal α-DNP antibodies from circulation in mice.

[4] = system: ASGPR on the surface of HepG2 cells; test: DNP-AF3-mediated ternary complex formation: α-DNP antibody association with HepG2 cells (flow cytometry); assay type: cell-based, human; conditions: 40 nM DNP-AF3, 100 nM α-DNP antibody; FIG. 99; read-out: IC50, inhibition of DNP-AF3-mediated ternary complex formation
Protocol: DNP-AF3 utilizes trivalent display of a higher affinity ASGPR ligand to engage the receptor. First, the effect of DNP-AF3 concentration on α-DNP antibody association with cells was determined (FIG. 98). In these experiments, a constant amount of α-DNP antibody and cells was incubated with various concentrations of DNP-AF3. The mean fluorescence intensity of the cell population was measured using flow cytometry. In order to account for background cellular fluorescence and non-DNP-AF3 mediated antibody association with cells, the mean fluorescence intensity of a sample of cells which had been treated with α-DNP antibody but not DNP-AF3 was subtracted from each data point.
Next, whether increasing concentrations of a competitive binder of the α-DNP antibody inhibits ternary complex formation was investigated. […] However, different preparations of the HepG2 cells and/or compound gave varying mean fluorescence intensity for the cell population between different independent experimental replicates. Therefore, for competition studies, inhibition of ternary complex formation was reported rather than mean fluorescence intensity of the cell population. 100% ternary complex formation is corrected to the fluorescence of a cell population treated with both 40 nM DNP-AF3 and 100 nM α-DNP antibody, while 0% ternary complex formation is corrected to a mixture of cells and α-DNP antibody without DNP-AF3.

[5] = system: HepG2 cells; test: DNP-AF3-mediated endocytosis of fluorescently labeled α-DNP antibody by HepG2 cells (flow cytometry); assay type: cell-based, human; conditions: 40 nM DNP-AF3, 100 nM antibody; ASF 2.07 μM; AF and GalNAc 1.25 mM; FIG. 105
Protocol: The intracellular fluorescence of cells that were incubated at 37° C. with both fluorescently labeled α-DNP antibody and DNP-AF3 for a given amount of time was examined. Cells were then washed, removed from the plate with trypsin, and subjected to flow cytometry. Trypsin treatment is expected to cleave ASGPR and surface-bound α-DNP antibody from cells, and therefore the cellular fluorescence observed in these assays is expected to arise only from internalized antibodies.
It was then determined if reagents which inhibit ternary complex formation inhibit endocytosis mediated by DNP-AF3. In order to account for non-specific antibody association with cells, the mean fluorescence intensity of an aliquot of cells which had been treated with α-DNP antibody but not DNP-AF3 was subtracted from each reading. […] In the presence of 2.38 μM (0.1 mg/mL) ASOR, the cell population fluorescence was decreased to 4.66e5 (FIG. 105); at this ASOR concentration, ternary complex formation is decreased by approximately 70%. Because ternary complex is not inhibited completely at this concentration of ASOR, it is expected that productive endocytic events are still taking place.

[6] = system: HepG2 cells; test: DNP-GN3-mediated endocytosis of fluorescently labeled α-DNP antibody by adherent HepG2 cells; assay type: cell-based, human; conditions: competitive binders at high concentrations; FIG. 88
[7] = system: α-DNP antibody; test: Depletion of α-DNP antibody from serum in mice (ELISA); assay type: in vivo; conditions: i.p.; FIG. 79A

O=C(CCOCC(COCCC(=O)NCCOCCOCCO)(COCCC(=O)NCCOCCOCCO)NC(=O)CNC(=O)COCCOCCOCCNc1ccc([N+](=O)[O-])cc1[N+](=O)[O-])NCCOCCOCCO [DNP-OH3, reference compound]
IC50 [1]: 36 nM | toxicity to mice [2]: not toxic | antibody depletion from serum [3]: No accelerated antibody depletion | IC50 [4]: 40.6 nM | effect on DNP-AF3-mediated α-DNP antibody endocytosis [5]: decreased to near-background levels | effect on DNP-GN3-mediated α-DNP antibody endocytosis [6]: significantly decreased | degradation of injected anti-DNP IgG antibodies in mouse serum [7]: did not show such effect
